Values quoted from earlier work in patent publication US20170071966A1, “PHARMACEUTICAL COMPOSITION” (priority 2014, published 2017).
Read-outs that look alike come from different tables or passages of the source. Values belong to the molecule of their own block, whether it stands above or below them.

Tests used:
[1] = system: mice exposed to whole body radiation; conditions: beta-carotene alone, given orally before or after whole body radiation
[2] = mice, drinking water 10, 20 and 30 mg/ml (4000, 8000, 12000 mg/kg body weight), 19-day experiment
[3] = a few subjects, gram quantities
[4] = not given; remark: listed apart in the source
[5] = gerbils, 1% in the food for 8 weeks
[6] = Senel et al. 1994
[7] = Zhang et al. 1994
[8] = Nakane et al. 1996

SMILES: CC1=C(/C=C/C(C)=C/C=C/C(C)=C/C=C/C=C(C)/C=C/C=C(C)/C=C/C2=C(C)CCCC2(C)C)C(C)(C)CCC1 [beta-carotene]
risk of hypervitaminosis A (high beta-carotene doses): no risk of hypervitaminosis A
long-term safety (patients with erythropoietic protoporphyria, 180 to 300 mg per day): safe at the highest daily dose for a lifetime
acute toxicity (surveillance over the decades it was a prescription drug): no known acute toxicity
survival from radiation [1]: enhance survival

ill effects [2]: no obvious ill effects
ill effects [3]: no known ill effects
water solubility [4]: highly water-soluble
SMILES: Nc1nc2c(ncn2[C@@H]2O[C@H](COP(=O)(O)O)[C@@H](O)[C@H]2O)c(=O)[nH]1 [guanosine monophosphate, Guanosine Monophosphate]

water solubility [4]: slightly water-soluble
deleterious effects [5]: no obvious deleterious effects
SMILES: Nc1nc2c(ncn2[C@@H]2O[C@H](CO)[C@@H](O)[C@H]2O)c(=O)[nH]1 [guanosine]

SMILES: C[C@H](CCC(=O)[O-])[C@H]1CC[C@H]2[C@@H]3[C@H](O)C[C@@H]4C[C@H](O)CC[C@]4(C)[C@H]3C[C@H](O)[C@]12C.[Na+] [sodium cholate, Sodium cholate]
increase of mucosal permeability of fluorescein isothiocyanate [6]: 100-200 times
buccal absorption of insulin [7]: increased the buccal absorption
absorption of luteinizing hormone releasing hormone [8]: increased the absorption
